The first assay has as its system MT4. Kind of assay: Inhibitory activity against HIV-1 virus in MT-4 human T-lymphoid cells. The format is functional. The following applies: read-out: ID50 (the source's name).
As for `CC1CCCCCCCCCCOC(=O)N(CC(O)C(Cc2ccccc2)NC(=O)O[C@H]2CO[C@H]3OCC[C@H]32)C1` (some centres not stated), the IC50 is 2500 nM.

The test system of another assay is Human immunodeficiency virus 1. The assay is described as follows: Compound was tested for its antiviral potency against human immunodeficiency virus type 1. The following applies: read-out: ID50 (the source's name). It is filed as functional.
Turning to `COc1ccc(S(=O)(=O)N(CC(C)C)CC(O)C(Cc2ccccc2)NC(=O)O[C@H]2CO[C@H]3OCC[C@H]32)cc1` (some centres not stated), the IC50 worked out at 1.4 nM.
For the compound `CC(C)(C)NC(=O)[C@@H]1C[C@@H]2CCCC[C@@H]2CN1CC(O)C(Cc1ccccc1)NC(=O)O[C@H]1CO[C@H]2OCC[C@H]21` (some centres not stated), the IC50 worked out at 50 nM.

A further assay has as its target Human immunodeficiency virus type 1 protease (Human immunodeficiency virus 1, UniProt Q72874). The assay is described as follows: Compound was tested for its inhibitory potency against human immunodeficiency virus -1 (HIV-1 protease).
Conditions: not given
Broadly, the Ki is the dissociation constant of the complex between target and ligand, obtained from inhibition or displacement. For the compound `COc1ccc(S(=O)(=O)N(CC(C)C)CC(O)C(Cc2ccccc2)NC(=O)O[C@H]2CO[C@H]3OCC[C@H]32)cc1` (some centres not stated), the Ki was 0.015 nM. This counts as picomolar.
Consider `O=C(NC(Cc1ccccc1)C(O)CN1CCCCCCCCCCCCOC1=O)O[C@H]1CO[C@H]2OCC[C@H]21` (some centres not stated), for which the inhibitory constant (Ki) stood at 14 nM.
In turn, `O=C(NC(Cc1ccccc1)C(O)CN1CCCCCCCCCCC(c2ccccc2)OC1=O)O[C@H]1CO[C@H]2OCC[C@H]21` (some centres not stated) registered an inhibitory constant (Ki) of 189 nM.
`O=C(NC(Cc1ccccc1)C(O)CN1CCCCCCCCCCCCC(c2ccccc2)OC1=O)O[C@H]1CO[C@H]2OCC[C@H]21` (some centres not stated) yielded a Ki of 268 nM.
The compound `O=C(NC(Cc1ccccc1)C(O)CN1CCCCCCCCCCCOC1=O)O[C@H]1CO[C@H]2OCC[C@H]21` (some centres not stated) showed a Ki of 80 nM.
The compound `CC(C)(C)NC(=O)[C@@H]1C[C@@H]2CCCC[C@@H]2CN1CC(O)C(Cc1ccccc1)NC(=O)O[C@H]1CO[C@H]2OCC[C@H]21` (some centres not stated) showed a Ki of 2 nM. Compared with the last compound, the Ki is about 40-fold lower.
Compound `C=CCCCCCCCCN(CC(O)C(Cc1ccccc1)NC(=O)O[C@H]1CO[C@H]2OCC[C@H]21)C(=O)OCCC=C` (some centres not stated) had a Ki greater than 1000 nM.
For the compound `C=CCCCCCCCCN(CC(O)C(Cc1ccccc1)NC(=O)O[C@H]1CO[C@H]2OCC[C@H]21)C(=O)OC(CC=C)c1ccccc1` (some centres not stated), the Ki is greater than 1000 nM.
In turn, `CC1CCCCCCCCCCOC(=O)N(CC(O)C(Cc2ccccc2)NC(=O)O[C@H]2CO[C@H]3OCC[C@H]32)C1` (some centres not stated) yielded a Ki of 6.1 nM. That is a single-digit nanomolar value.
For the compound `O=C(NC(Cc1ccccc1)C(O)CN1CCCCCCCCC/C=C/CC(c2ccccc2)OC1=O)O[C@H]1CO[C@H]2OCC[C@H]21` (some centres not stated), the Ki was 167 nM. Against the preceding compound, the Ki is about 27-fold higher.
As for `O=C(NC(Cc1ccccc1)C(O)CN1CCCC/C=C/CCCCCCC(c2ccccc2)OC1=O)O[C@H]1CO[C@H]2OCC[C@H]21` (some centres not stated), affinity was put at a Ki of 162 nM.
As to `O=C(NC(Cc1ccccc1)C(O)CN1C/C=C\CCCCCCCCOC1=O)O[C@H]1CO[C@H]2OCC[C@H]21` (some centres not stated), the Ki turned out to be 125 nM.
Compound `O=C(NC(Cc1ccccc1)C(O)CN1CCCCCCCCC/C=C/CCOC1=O)O[C@H]1CO[C@H]2OCC[C@H]21` (some centres not stated) returned a Ki of 88 nM.
In turn, `CC1C/C=C\CCCCCCCCCOC(=O)N1CC(O)C(Cc1ccccc1)NC(=O)O[C@H]1CO[C@H]2OCC[C@H]21` (some centres not stated) gave a Ki of 53 nM. Against the preceding compound, the Ki is about 1.7-fold lower.
The same measure, in the same setting: then `O=C(NC(Cc1ccccc1)C(O)CN1CCCCCCCCCCCC(c2ccccc2)OC1=O)O[C@H]1CO[C@H]2OCC[C@H]21` (some centres not stated), with 357 nM; and `CC1CCCCCCCCCCCOC(=O)N1CC(O)C(Cc1ccccc1)NC(=O)O[C@H]1CO[C@H]2OCC[C@H]21` (some centres not stated), with 30 nM.
With `CC1C/C=C/CCCCCCCCOC(=O)N(CC(O)C(Cc2ccccc2)NC(=O)O[C@H]2CO[C@H]3OCC[C@H]32)C1` (some centres not stated), the inhibition constant Ki worked out at 11 nM.
`C=CCCCCCCCCOC(=O)N(CC=C)CC(O)C(Cc1ccccc1)NC(=O)O[C@H]1CO[C@H]2OCC[C@H]21` (some centres not stated): the Ki is greater than 1000 nM.
Same read-out and setting: next, `O=C(NC(Cc1ccccc1)C(O)CN1C/C=C\CCCCCCCC(c2ccccc2)OC1=O)O[C@H]1CO[C@H]2OCC[C@H]21` (some centres not stated): 229 nM; `C=CCCCCCCC(OC(=O)N(CCCCC=C)CC(O)C(Cc1ccccc1)NC(=O)O[C@H]1CO[C@H]2OCC[C@H]21)c1ccccc1` (some centres not stated): 444 nM; `C=CCCCCCCCCOC(=O)N(CC(O)C(Cc1ccccc1)NC(=O)O[C@H]1CO[C@H]2OCC[C@H]21)C(C)CC=C` (some centres not stated): greater than 1000 nM.
In turn, `C=CCCCCCCCC(OC(=O)N(CC=C)CC(O)C(Cc1ccccc1)NC(=O)O[C@H]1CO[C@H]2OCC[C@H]21)c1ccccc1` (some centres not stated) registered a Ki greater than 1000 nM.
Still for that read-out and setting: then `C=CCCCCCCCOC(=O)N(CC(C)CC=C)CC(O)C(Cc1ccccc1)NC(=O)O[C@H]1CO[C@H]2OCC[C@H]21` (some centres not stated), with greater than 1000 nM.

For a further assay, the target named is Human immunodeficiency virus type 1 protease (Human immunodeficiency virus 1) (UniProt Q72874).
Conditions: not given
`CC(C)(C)NC(=O)[C@@H]1C[C@@H]2CCCC[C@@H]2CN1C[C@@H](O)[C@H](Cc1ccccc1)NC(=O)[C@H](CC(N)=O)NC(=O)c1ccc2ccccc2n1` had an ID50 of 18 nM.

Source of the values: ChEMBL document CHEMBL1135191, “Novel cyclourethane-derived HIV protease inhibitors: a ring-closing olefin metathesis based strategy” (Bioorg Med Chem Lett, 2002).
